According to patent US11260036B2, “[18F]-labelled lactate derivative as PET radiotracer” (GRANDIS, priority 2016, dated 2022):

Legend:
rabbit muscle LDH = target: T1, rabbit muscle LDH (Oryctolagus cuniculus, UniProt P13491); assay: Lactate dehydrogenase assay (reduction of 3-fluoropyruvate); format: biochemical; details: 10 IU rabbit muscle LDH, NADH 0.2 mM, 37° C., 24 h, HPLC-MS detection
T1 construct: 10 IU of rabbit muscle LDH (Sigma); purchased Sigma; host or cells: rabbit muscle
Protocol: A potential reduction of 3-fluoropyruvate to 3-fluoro-2-hydroxypropionate by lactate dehydrogenase (LDH) was measured in vitro using a previously reported protocol (Goncalves et al., Tetrahedron: Asymmetry, 1996, 7, 1237-1240).
Briefly, 14.6 mg of nonradioactive 3-fluorpyruvate were dissolved in 4 mL of double distilled water containing 10 IU of rabbit muscle LDH (Sigma) and 5.3 IU of formate dehydrogenase (Sigma). The reaction was started by adding NADH to a final concentration of 0.2 mM and sodium formate to a final concentration of 40 mM. The final volume was adjusted to 5 mL with double distilled water. The reaction was carried out at 37° C. for 24 h under constant, gentle shaking at 120 rpm. Then, solution was spun through a 10 kDa filter to remove enzymes, and 3-fluoro-2-hydroxypropionate was detected by HPLC-MS using an Accela U(HPLC) equipped with a Luna Phenomenex 250*4.60 HPLC column and an ThermoScientific LTQ—ORBITRAP—XL fitted an electrospray ionization source working in negative mode.

SiHa cells = assay: In vitro tracer uptake assay, SiHa; format: cell-based, human; details: 6 min after delivery of 45 μCi/ml of the tracer
Excerpt: (§1) Cells and gene silencing. HeLa and SiHa human cervix squamous cell carcinoma and SDQ9 human laryngeal squamous cell carcinoma were from ATCC. Cells were routinely cultured in DMEM (Thermo Fischer) containing glucose (4.5 g/L), Glutamax and 10% FBS. MCT1-deficient and control SiHa cells were produced as previously described (De Saedeleer et al., Oncogene, 2014, 33, 4060-4068), using the following vectors from Open Biosystems: TRCN0000038340 (shMCT1-1) and TRCN0000038339 (shMCT1-2). Control shRNA (shCTR) was Addgene plasmid 1864.
(§2) In vitro tracer uptake assay. A modified version of the ^14C-Lactate uptake assay described by Draoui et al., (Draoui et al., Bioorg Med Chem, 2013, 21, 7107-7117) was used. Briefly, 250,000 cells were plated in flat-bottom 24 well plates (t=0). When cells were attached (t=6 h), medium was replaced by DMEM without glucose and glutamine, containing 10% dialyzed FBS and 10 mM of L-lactate, pH 7.0. Cells were then incubated overnight at 37° C., 5% CO2. On the day of experiment, (t=24 h), cells medium was removed and cells were briefly washed twice with a modified KREBS solution without glucose (HEPES 25 mM, NaCl 120 mM, KCl 4.8 mM, KH2PO4 1.2 mM, MgSO4 1.2 mM, CaCl2 2 mM). […] Cells were lysed with NaOH 0.1 N, and ^18F activity was measured in the cell lysate using a Wiper Gold γ-counter (Laboratory Technologies). Activity is expressed as % of initial dose. […]

HeLa cells = assay: In vitro tracer uptake assay, HeLa; format: cell-based, human; details: 6 min after delivery of 45 μCi/ml of the tracer
Excerpt: as §1, §2

SQD9 cells = assay: In vitro tracer uptake assay, SQD9; format: cell-based, human; details: SQD9, 6 min after delivery of 45 μCi/ml of the tracer
Excerpt: as §1, §2

SiHa tumors = assay: In vivo tracer uptake assay (PET/CT), mice bearing SiHa-shCTR and SiHa-shMCT1 tumors
Protocol: In vivo tracer uptake assay. All in vivo experiments were performed with approval of UCL Comité d'Ethique pour l'Expérimentation Animale (approval ID 2014/UCL/MD/014) according to national and European animal care regulations. To avoid inter-subject variability, 500,000 SiHa-shCTR and SiHa-shMCT1 cells in a HBSS:Matrigel 1:1 solution were respectively injected in the left and right flank of same 6.5 week-old male NMRI nude mice. In another model, 1,000,000 SQD9 cells in a HBSS:Matrigel 1:1 solution were injected on the back of same 6.5 week-old male NMRI nude mice. Experiments were performed on tumors of ˜10 mm in diameter, i.e., about 3 weeks tumor cell inoculation. For intravenous injection, MCT1 inhibitor AR-C155858 (Tocris) was dissolved in 0.9% NaCl with 10% (2-hydroxypropyl)-β-cyclodextrin at a concentration of 2.5 mg/ml (Vijay et al., Pharm Res, 2015, 32, 1894-1906). For intravenous injection, MCT1 inhibitor AZD3965 (Selleckchem) was first dissolved in pure ethanol at a concentration of 100 mg/ml, then diluted in 0.9% NaCl with 10% (2-hydroxypropyl)-β-cyclodextrin at a final concentration of 2.5 mg/ml. (±)-[^18F]-3-fluoro-2-hydroxypropionate (150-250 μCO was injected in the tail vein of the animals 10 min after the delivery of AR-C155858 (5 mg/Kg), AZD3965 (5 mg/Kg), or vehicle (70 μL). At indicated times, a whole body 10-min static PET imaging (small-animal Mosaic PET Scan system, Philips Medical Systems) directly followed by a 10 min transmission CT scan (NanoSPECT/CT Small Animal Imager, Bioscan; source: 370 MBq ^137Cs; X-Ray tube voltage: 55 kVp; number of projections: 180; exposure time 1000 ms) were performed on isoflurane-anesthetized mice kept at 35° C. PET images were corrected for attenuation and reconstructed using fully 3D iterative algorithm 3D-RAMLA in a 128×128×120 matrix, with a voxel size of 1 mm^3. CT images were reconstructed with a voxel size of 0.221×0.221×0.221 mm^3. 2D Regions of interest (ROIs) were manually delineated on PET images using the PMOD software version 3.5 (PMOD technologies Ltd). Tumor localization was determined on PET/CT fused images. Ribcage and skin were used as internal and external limits, respectively. Tracer uptake is expressed as standard uptake value (SUV) calculated on the mean value of voxels within the manually defined 3D volume of interest (VOI).

SQD9 tumors = assay: In vivo tracer uptake assay (PET/CT), mice bearing SQD9 tumors; details: IV 250 μCi, PET-CT
Protocol: In vivo tracer uptake assay. All in vivo experiments were performed with approval of UCL Comité d'Ethique pour l'Expérimentation Animale (approval ID 2014/UCL/MD/014) according to national and European animal care regulations. To avoid inter-subject variability, 500,000 SiHa-shCTR and SiHa-shMCT1 cells in a HBSS:Matrigel 1:1 solution were respectively injected in the left and right flank of same 6.5 week-old male NMRI nude mice. In another model, 1,000,000 SQD9 cells in a HBSS:Matrigel 1:1 solution were injected on the back of same 6.5 week-old male NMRI nude mice. Experiments were performed on tumors of ˜10 mm in diameter, i.e., about 3 weeks tumor cell inoculation. For intravenous injection, MCT1 inhibitor AR-C155858 (Tocris) was dissolved in 0.9% NaCl with 10% (2-hydroxypropyl)-β-cyclodextrin at a concentration of 2.5 mg/ml (Vijay et al., Pharm Res, 2015, 32, 1894-1906). For intravenous injection, MCT1 inhibitor AZD3965 (Selleckchem) was first dissolved in pure ethanol at a concentration of 100 mg/ml, then diluted in 0.9% NaCl with 10% (2-hydroxypropyl)-β-cyclodextrin at a final concentration of 2.5 mg/ml. […] Tumor localization was determined on PET/CT fused images. […] Tracer uptake is expressed as standard uptake value (SUV) calculated on the mean value of voxels within the manually defined 3D volume of interest (VOI).

MCT1 = target: T2, MCT1 (Homo sapiens, UniProt P53985); assay: In vivo inhibition of tracer uptake by MCT1 inhibitors, SQD9 tumor-bearing mice (PET/CT); details: 5 mg/Kg IV 10 min before tracer, images 30 min after tracer; SQD9 tumors, liver
T2 construct: the experiment was repeated using SQD9 human laryngeal squamous cell carcinoma cells in mice; endogenous in cells; host or cells: SQD9 xenograft tumours in NMRI nude mice
T2 sequence (P53985 1-500): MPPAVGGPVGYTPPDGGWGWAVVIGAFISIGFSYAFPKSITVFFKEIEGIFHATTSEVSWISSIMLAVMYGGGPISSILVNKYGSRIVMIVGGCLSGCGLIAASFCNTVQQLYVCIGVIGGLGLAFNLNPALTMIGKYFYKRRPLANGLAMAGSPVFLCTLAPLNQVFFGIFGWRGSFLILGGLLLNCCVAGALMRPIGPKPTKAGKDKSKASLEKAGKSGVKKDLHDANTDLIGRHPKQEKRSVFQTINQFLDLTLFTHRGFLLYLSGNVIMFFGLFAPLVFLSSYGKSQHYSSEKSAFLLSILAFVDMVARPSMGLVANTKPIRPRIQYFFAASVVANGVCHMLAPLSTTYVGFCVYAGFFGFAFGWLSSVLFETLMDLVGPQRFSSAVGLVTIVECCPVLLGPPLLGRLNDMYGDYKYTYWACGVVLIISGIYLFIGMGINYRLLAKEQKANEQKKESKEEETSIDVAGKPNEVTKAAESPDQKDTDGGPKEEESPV
T2 sequence (P35613 140-385 partner limits assumed): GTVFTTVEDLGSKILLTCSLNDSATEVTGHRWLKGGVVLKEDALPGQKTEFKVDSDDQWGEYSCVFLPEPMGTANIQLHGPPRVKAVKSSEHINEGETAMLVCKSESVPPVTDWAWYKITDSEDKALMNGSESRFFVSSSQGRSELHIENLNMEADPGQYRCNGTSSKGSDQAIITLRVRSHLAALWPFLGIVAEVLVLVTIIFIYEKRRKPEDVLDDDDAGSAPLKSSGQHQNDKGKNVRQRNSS
Protocol: In vivo tracer uptake assay. […] In another model, 1,000,000 SQD9 cells in a HBSS:Matrigel 1:1 solution were injected on the back of same 6.5 week-old male NMRI nude mice. Experiments were performed on tumors of ˜10 mm in diameter, i.e., about 3 weeks tumor cell inoculation. […] 2D Regions of interest (ROIs) were manually delineated on PET images using the PMOD software version 3.5 (PMOD technologies Ltd). Tumor localization was determined on PET/CT fused images. Ribcage and skin were used as internal and external limits, respectively. Tracer uptake is expressed as standard uptake value (SUV) calculated on the mean value of voxels within the manually defined 3D volume of interest (VOI).

With 3-fluoropyruvate the “reduction of 3-fluoropyruvate to 3-fluoro-2-hydroxypropionate by LDH” value (rabbit muscle LDH) was “can be reduced to 3-fluoralacate by lactate dehydrogenase (LDH)”.
With O=C(O)C(O)C[18F] (racemic) [(±)-[^18F]-3-fluoro-2-hydroxypropionate, [^18F]-3-fluoro-2-hydroxypropionic acid] the “intracellular 18F dose” value (SiHa cells) was ~0.1 % of the initial dose, the “intracellular 18F dose” value (HeLa cells) was ~0.1 % of the initial dose and the “intracellular 18F dose” value (SQD9 cells) was ~0.3 % of the initial dose. For the same molecule, the “bone labeling indicating defluorination” value (SiHa tumors; 30 min after tracer injection) was “no detectable bone labeling”, the “discrimination of SiHa-shCTR and SiHa-shMCT1 tumors by the tracer” value (SiHa tumors; 30 min after tracer injection) was “no apparent discrimination of SiHa-shCTR and SiHa-shMCT1” and the “bone labeling indicating defluorination” value (SiHa tumors; 60 min after tracer injection) was “spinal and joint labeling was detected, indicating that some defluorination had occurred”. For the same molecule, the “time of best tumor contrast after tracer injection” value (SiHa tumors; IV 150-250 μCi, PET/CT) was 30 min, the “labeling of other organs (tracer distribution)” value (SiHa tumors; IV 150-250 μCi, PET/CT, 30 min after tracer injection) was “the gut and the liver, were also labeled” and the “route of tracer clearance” value (SiHa tumors; bladder labeling before and after systemic MCT1 inhibition) was “urine is the preferred route”. For the same molecule, the “tracer uptake by SQD9 tumors” value (SQD9 tumors) was “the tumors captured and accumulated the tracer”.
For Cc1[nH]nc(C(F)(F)F)c1Cc1sc2c(c1C(=O)N1C[C@](C)(O)CO1)c(=O)n(C)c(=O)n2C(C)C [AZD3965], the “change in tracer uptake (SUV) after MCT1 inhibitor” value (MCT1) was “highly significant decrease in tracer uptake in the tumors and liver”.
